In publication PMC11528320, “S-MGBs bearing amidine tail groups are potent, selective antiplasmodial agents” (RSC Medicinal Chemistry, 2024):
Read-outs that look alike come from different tables or passages of the source.

Assays:
P. falciparum Dd2 = assay: in vitro asexual P. falciparum imaging assay, Dd2 strain; type: cell-based; conditions: for IC50: Plasmodium falciparum, DD2, 72 h, read-out: Dd2 IC50; for Dd2/3D7: ratio of Dd2 IC50 to 3D7 IC50 (cross-resistance)
Method: (§1) The antiplasmodial in vitro assay was performed as previously described.[13] In brief, P. falciparum parasites (3D7 and Dd2 strains) were grown in RPMI-1640 medium supplemented with 25 mM HEPES, 5% AB human male serum, 2.5 mg mL^−1 Albumax II, and 0.37 mM hypoxanthine. Parasites were subjected to two rounds of sorbitol synchronization prior to compound addition. Ring stage parasites were incubated with compounds in 384-well imaging CellCarrier microplates, for 72 h at 37 °C, 90% N2, 5% CO2, 5% O2, parasites stained with 4′,6-diamidino-2-phenylindole (DAPI) and imaged using an Opera QEHS microplate confocal imaging system (PerkinElmer). Images were analysed as previously described,[13] and raw data normalized using the in-plate positive and negative controls to obtain percent inhibition, used to calculate IC50 values, through a four-parameter logistic curve fitting in Prism (GraphPad).

[1] = tested on: double stranded DNA oligo 5′-CGCATATATGCG-3′; assay: native mass spectrometry (nESI-MS) of binding to dsDNA oligo; conditions: 9 μM DNA, 100 μM S-MGB
Method: DNA oligonucleotide sequence 5′-[…]-3′ was purchased in lyophilized form from Alpha DNA, Canada) and used without further purification, purity assessed by NMR. 100 μM stock solutions of DNA were prepared with 150 mM ammonium acetate solution (Fisher Scientific, Loughborough, Leicestershire, UK) and 2 mM potassium chloride solution (Fisher Scientific, Loughborough, Leicestershire, UK). This solution was annealed at 90 degrees for 10 minutes and allowed to cool to room temperature. 10 mM S-MGB stock in 100% DMSO (Sigma-Aldrich, St. Louis, MO, USA) were diluted to 1 mM S-MGB solution with 150 mM ammonium acetate. Final samples were prepared from this solution to yield final concentrations of 9 μM DNA, 100 μM KCl, and 100 μM s-MGB, 1% DMSO. DNA solutions containing no S-MGB included 1% DMSO and were used as controls.
Native mass spectrometry experiments were carried out on a Synapt G2Si instrument (Waters, Manchester, UK) with a nanoelectrospray ionization source (nESI). Mass calibration was performed by a separate infusion of NaI cluster ions. Solutions were ionized from a thin-walled borosilicate glass capillary (i.d. 0.78 mm, o.d. 1.0 mm, Sutter Instrument Co., Novato, CA, USA) pulled in-house to nESI tip with a Flaming/Brown micropipette puller (Sutter Instrument Co., Novato, CA, USA). A negative potential in range of 1.0–1.2 kV was applied to the solution via a thin platinum wire (diameter 0.125 mm, Goodfellow, Huntingdon, UK). The following non-default instrument parameters were used for the DNA: S-MGB-241 complex: capillary voltage 1.4 kV, sample cone voltage 100 V, source offset 110 V, source temperature 40 °C, trap collision energy 3.0 (V), trap gas 3 mL min^−1. For DNA with no MGB present, the following parameters were changed: capillary voltage 1.0 kV, sample cone voltage 80 V, source offset 95 V and trap gas 4.0 mL min^−1. Data were processed using Masslynx V4.2 and OriginPro 2021, and figures were produced using Chemdraw.

P. falciparum 3D7 = assay: in vitro asexual P. falciparum imaging assay, 3D7 strain; type: cell-based; conditions: Plasmodium falciparum
Method: as §1

HEK293 cells = assay: HEK293 cell viability (resazurin) assay; type: cell-based, Human; conditions: for inhibition at 80 µM: Homo sapiens, HEK293, 72 h; for SI, HEK293/3D7: ratio of HEK293 IC50 (or relative IC50) to P. falciparum 3D7 IC50
Method: Cell viability was assessed using a minor modification of the protocol previously described.[14] Human embryonic kidney cells (HEK293) were maintained in Dulbecco's modified Eagle's medium supplemented with 10% foetal bovine serum.

[2] = tested on: Salmon genomic DNA (gDNA); assay: UV-vis DNA thermal melting (thermal shift) with gDNA; type: binding; conditions: 10 μM S-MGB, 0.02 mg mL^−1 salmon gDNA, N = 3; for Tm of S-MGB + gDNA: gDNA alone 70
Method: Salmon genomic DNA (gDNA; D1626, Sigma-Aldrich) at 1 mg mL^−1 in 1 mM phosphate buffer (pH 7.4) containing 0.27 mM KCl and 13.7 mM NaCl (P4417, Sigma-Aldrich) was annealed at 90 °C for 10 min and left to cool to room temperature. S-MGBs at 10 mM in DMSO were diluted with the same phosphate buffer to yield a single sample with 10 μM S-MGB and 0.02 mg mL^−1 gDNA in 1 mM phosphate buffer containing 0.27 mM KCl and 13.7 mM NaCl. Control samples containing only S-MGB or gDNA were prepared, respectively. Samples were melted at a rate of 0.5 °C min^−1 from 45 °C to 90 °C with spectra recorded at 260 nm on a UV-1900 UV-vis spectrophotometer fitted with a Peltier temperature controller (Shimadzhu) using LabSolutions (Tm Analysis) software. The melting temperatures (Tms) of the S-MGB:DNA complexes were determined by fitting a sigmoidal function using a Boltzmann distribution in OriginPro.

[3] = 3D7, strain not specified, read-out: potency against P. falciparum (approximate, conclusion)

| Structure (SMILES) | IC50 (P. falciparum Dd2) | Dd2/3D7 (P. falciparum Dd2) | binding to dsDNA as dimer [DS + 2 M] [1] | binding to dsDNA as monomer [DS + 1 M] [1] | IC50 (P. falciparum 3D7; 3D7, 72 h, read-out: 3D7 IC50) | IC50 (P. falciparum 3D7; [3]) | inhibition at 80 µM (HEK293 cells) | HEK293 top concentration tested, used to calculate SI (HEK293 cells; not rIC50 as < 30% inhibition) | SI, HEK293/3D7 (HEK293 cells) | SI, HEK293/3D7 (HEK293 cells; listed as 359) | ΔTm [2] | Tm of S-MGB + gDNA [2] | SI, HEK293/3D7 (HEK293 cells; listed as S-MGB-356) | SI, HEK293/3D7 (HEK293 cells; listed as 368) |
| --- | --- | --- | --- | --- | --- | --- | --- | --- | --- | --- | --- | --- | --- | --- |
| Cn1cc(NC(=O)c2cc(NC(=O)c3ccc(/C=C/c4ccc5ccccc5c4)cc3)cn2C)cc1C(=O)NCCC(=N)N.O=C(O)C(F)(F)F [S-MGB-359] | 318.6 ± 1.1 nM | 1.1 | bind to DNA as dimers | minor peak corresponding to the monomer complex | 302.1 ± 0.6 nM | ~100 nM | 23% | 80 nM | > 264.8 | >264.8 | 16 °C | 86 °C |  |  |
| Cn1cc(NC(=O)c2cc(NC(=O)c3ccc(/C=C/c4ccncc4)cc3)cn2C)cc1C(=O)NCCC(=N)N.O=C(O)C(F)(F)F.O=C(O)C(F)(F)F [S-MGB-365] | 79.6 ± 0.2 nM | 1.2 | bind to DNA as dimers | no evidence | 65.3 ± 0.2 nM | ~100 nM | 95% |  | >612.6 |  | 12 °C | 82 °C | > 612.6 |  |
| COc1cccc(/C=C/c2ccc(C(=O)Nc3cc(C(=O)Nc4cc(C(=O)NCCC(=N)N)n(C)c4)n(C)c3)cn2)c1.O=C(O)C(F)(F)F.O=C(O)C(F)(F)F [S-MGB-368] | 201.7 ± 0.3 nM | 1.5 | bind to DNA as dimers | no evidence | 134 ± 0.3 nM | ~100 nM | 92% |  | > 335.8 |  | 3 °C | 73 °C |  | >335.8 |
| Cn1cc(NC(=O)c2cc(NC(=O)c3ccc(/C=C/c4cccc(F)c4)cc3)cn2C)cc1C(=O)NCCC(=N)N.O=C(O)C(F)(F)F [S-MGB-391] | 1295.5 ± 0.7 nM | 1.9 |  |  | 671.3 ± 1.4 nM |  | 100% |  | >59.6 |  |  |  |  |  |
